{"source": "patent US20240109900A1", "about": "“AZABICYCLIC SHP2 INHIBITORS” (IRBM S.P.A., priority 2021, published 2024)", "key": {"[1]": {"test_system": "ERK phosphorylation in KYSE-520 cells", "assay": "Phospho-ERK cellular assay", "format": "cell-based", "settings": "Homo sapiens, KYSE-520 cells, 2 h at 37° C., phospho-ERK1/2 (Thr202/Tyr204) TR-FRET, read-out: PERK IC50", "outline": "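TR-FRET read-out of ERK1/2 Thr202/Tyr204 phosphorylation was taken after overnight antibody incubation at room temperature. Before that, KYSE-520 cells were treated 2 h at 37 °C with compound dilutions and lysed 30 min. Percent inhibition relative to vehicle and cell-free wells was fitted four-parametrically to give IC50.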"}, "[2]": {"target": "SHP-2 enzyme (Met1-Leu525) (Homo sapiens (Human), UniProt Q06124)", "sequence (Q06124 1-525)": "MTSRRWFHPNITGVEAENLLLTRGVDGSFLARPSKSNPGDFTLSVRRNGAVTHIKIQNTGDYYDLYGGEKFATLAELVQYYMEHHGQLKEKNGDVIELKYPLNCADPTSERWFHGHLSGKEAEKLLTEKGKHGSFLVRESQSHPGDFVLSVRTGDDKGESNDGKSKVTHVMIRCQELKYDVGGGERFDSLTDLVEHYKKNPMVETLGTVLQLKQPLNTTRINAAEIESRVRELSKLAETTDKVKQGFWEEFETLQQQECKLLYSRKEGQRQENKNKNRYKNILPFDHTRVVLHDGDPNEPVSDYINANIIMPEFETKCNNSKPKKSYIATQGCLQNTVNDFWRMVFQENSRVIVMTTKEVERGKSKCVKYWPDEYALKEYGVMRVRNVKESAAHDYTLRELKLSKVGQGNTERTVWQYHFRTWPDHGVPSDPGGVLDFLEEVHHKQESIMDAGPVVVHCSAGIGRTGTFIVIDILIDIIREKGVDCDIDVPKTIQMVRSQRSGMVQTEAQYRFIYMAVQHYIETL", "assay": "SHP2 inhibition enzymatic assay", "format": "biochemical", "settings": "read-out: SHP2wt-IC50", "outline": "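Compounds were preincubated 30 min with 0.5 nM SHP-2 (Met1-Leu525) plus 500 nM IRS1 activating peptide (pH 7.2 HEPES, 5 mM DTT), then 75 μM DiFMUP substrate reacted 30 min at room temperature. After bpV quench, DiFMUP fluorescence gave % inhibition; four-parameter logistic fit yielded IC50.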"}, "[3]": {"settings": "0.5 nM SHP-2 activated by 500 nM IRS1 peptide, 75 μM DiFMUP substrate"}}, "note": "Read-outs that look alike come from different tables or passages of the source.", "data": [{"smiles": "Cc1cc([C@@]2(CN)[C@@H]3CCN(c4cnc5c(-c6ccnc7cc(F)ccc67)n[nH]c5n4)C[C@@H]32)no1", "note": "[Example 45, ((1S,6R,7S)-3-(3-(7-fluoroquinolin-4-yl)-1H-pyrazolo[3,4-b]pyrazin-6-yl)-7-(5-methylisoxazol-3-yl)-3-azabicyclo[4.1.0]heptan-7-yl)methanamine]", "values": [{"measurement": "IC50", "setting": "[1]; KYSE-520, 2 h", "value": "< 1000", "unit": "nM"}, {"measurement": "IC50", "setting": "[2]; [3]", "value": "< 500", "unit": "nM"}]}, {"smiles": "Cc1cc([C@@]2(CN)[C@@H]3CCN(c4cnc5c(-c6ccc7nn(C)cc7c6Cl)n[nH]c5n4)C[C@@H]32)no1", "note": "[Example 46, ((1S,6R,7S)-3-(3-(4-chloro-2-methyl-2H-indazol-5-yl)-1H-pyrazolo[3,4-b]pyrazin-6-yl)-7-(5-methylisoxazol-3-yl)-3-azabicyclo[4.1.0]heptan-7-yl)methanamine]", "values": [{"measurement": "IC50", "setting": "[1]; KYSE-520, 2 h", "value": "< 1000", "unit": "nM"}, {"measurement": "IC50", "setting": "[2]; [3]", "value": "< 500", "unit": "nM"}]}, {"smiles": "COCc1cc(C2(CN)C3CCN(c4cnc5c(-c6ccc7nn(C)cc7c6Cl)n[nH]c5n4)CC32)no1", "note": "(centres unmarked) [Example 47, (3-(3-(4-chloro-2-methyl-2H-indazol-5-yl)-1H-pyrazolo[3,4-b]pyrazin-6-yl)-7-(5-(methoxymethyl)isoxazol-3-yl)-3-azabicyclo[4.1.0]heptan-7-yl)methanamine]", "values": [{"measurement": "IC50", "setting": "[1]; KYSE-520, 2 h", "value": "< 1000", "unit": "nM"}, {"measurement": "IC50", "setting": "[2]; [3]", "value": "< 500", "unit": "nM"}]}, {"smiles": "Cn1cc2c(Cl)c(-c3n[nH]c4nc(N5CCC6C(C5)C6(CN)c5cc(C6CC6)on5)cnc34)ccc2n1", "note": "(centres unmarked) [Example 48, (3-(3-(4-chloro-2-methyl-2H-indazol-5-yl)-1H-pyrazolo[3,4-b]pyrazin-6-yl)-7-(5-cyclopropylisoxazol-3-yl)-3-azabicyclo[4.1.0]heptan-7-yl)methanamine]", "values": [{"measurement": "IC50", "setting": "[1]; KYSE-520, 2 h", "value": "< 1000", "unit": "nM"}, {"measurement": "IC50", "setting": "[2]; [3]", "value": "< 500", "unit": "nM"}]}, {"smiles": "Cn1cc2c(Cl)c(-c3n[nH]c4nc(N5CCC6C(C5)C6(CN)c5ncccc5F)cnc34)ccc2n1", "note": "(centres unmarked) [Example 49, (3-(3-(4-chloro-2-methyl-2H-indazol-5-yl)-1H-pyrazolo[3,4-b]pyrazin-6-yl)-7-(3-fluoropyridin-2-yl)-3-azabicyclo[4.1.0]heptan-7-yl)methanamine]", "values": [{"measurement": "IC50", "setting": "[1]; KYSE-520, 2 h", "value": "< 1000", "unit": "nM"}, {"measurement": "IC50", "setting": "[2]; [3]", "value": "< 500", "unit": "nM"}]}, {"smiles": "Cn1cc2c(Cl)c(-c3n[nH]c4nc(N5CCC6C(C5)C6(CN)c5ccc(F)cn5)cnc34)ccc2n1", "note": "(centres unmarked) [Example 50, (3-(3-(4-chloro-2-methyl-2H-indazol-5-yl)-1H-pyrazolo[3,4-b]pyrazin-6-yl)-7-(5-fluoropyridin-2-yl)-3-azabicyclo[4.1.0]heptan-7-yl)methanamine]", "values": [{"measurement": "IC50", "setting": "[1]; KYSE-520, 2 h", "value": "< 1000", "unit": "nM"}, {"measurement": "IC50", "setting": "[2]; [3]", "value": "< 500", "unit": "nM"}]}, {"smiles": "Cc1cc([C@@]2(CN)[C@@H]3CCN(c4cnc5c(-c6cccc7c6C(F)(F)C(=O)N7C)n[nH]c5n4)C[C@@H]32)no1", "note": "[Example 51, 4-(6-((1S,6R,7S)-7-(aminomethyl)-7-(5-methylisoxazol-3-yl)-3-azabicyclo[4.1.0]heptan-3-yl)-1H-pyrazolo[3,4-b]pyrazin-3-yl)-3,3-difluoro-1-methylindolin-2-one]", "values": [{"measurement": "IC50", "setting": "[1]; KYSE-520, 2 h", "value": "< 1000", "unit": "nM"}, {"measurement": "IC50", "setting": "[2]; [3]", "value": "< 500", "unit": "nM"}]}, {"smiles": "Cc1conc1C1(CN)C2CCN(c3cnc4c(-c5ccc6onc(C)c6c5)n[nH]c4n3)CC21", "note": "(centres unmarked) [Example 52, (3-(3-(3-methylbenzo[d]isoxazol-5-yl)-1H-pyrazolo[3,4-b]pyrazin-6-yl)-7-(4-methylisoxazol-3-yl)-3-azabicyclo[4.1.0]heptan-7-yl)methanamine]", "values": [{"measurement": "IC50", "setting": "[1]; KYSE-520, 2 h", "value": "< 1000", "unit": "nM"}, {"measurement": "IC50", "setting": "[2]; [3]", "value": "< 500", "unit": "nM"}]}, {"smiles": "Cc1cc(C2(CN)C3CCN(c4cnc5c(Sc6ccnc(N)c6Cl)n[nH]c5n4)CC32)no1", "note": "(centres unmarked) [Example 53, 4-((6-(7-(aminomethyl)-7-(5-methylisoxazol-3-yl)-3-azabicyclo[4.1.0]heptan-3-yl)-1H-pyrazolo[3,4-b]pyrazin-3-yl)thio)-3-chloropyridin-2-amine]", "values": [{"measurement": "IC50", "setting": "[1]; KYSE-520, 2 h", "value": "< 1000", "unit": "nM"}, {"measurement": "IC50", "setting": "[2]; [3]", "value": "< 500", "unit": "nM"}]}, {"smiles": "Cc1cc(C2(CN)C3CCN(c4cnc5c(Sc6ccnc7ccsc67)n[nH]c5n4)CC32)no1", "note": "(centres unmarked) [Example 54, (7-(5-methylisoxazol-3-yl)-3-(3-(thieno[3,2-b]pyridin-7-ylthio)-1H-pyrazolo[3,4-b]pyrazin-6-yl)-3-azabicyclo[4.1.0]heptan-7-yl)methanamine]", "values": [{"measurement": "IC50", "setting": "[1]; KYSE-520, 2 h", "value": "< 1000", "unit": "nM"}, {"measurement": "IC50", "setting": "[2]; [3]", "value": "< 500", "unit": "nM"}]}, {"smiles": "NCC1(c2cccc(F)c2)C2CCN(c3nc4[nH]nc(-c5cccc(Cl)c5Cl)c4nc3CO)CC21", "note": "(centres unmarked) [Example 55, (6-(7-(aminomethyl)-7-(3-fluorophenyl)-3-azabicyclo[4.1.0]heptan-3-yl)-3-(2,3-dichlorophenyl)-1H-pyrazolo[3,4-b]pyrazin-5-yl)methanol]", "values": [{"measurement": "IC50", "setting": "[1]; KYSE-520, 2 h", "value": "< 1000", "unit": "nM"}, {"measurement": "IC50", "setting": "[2]; [3]", "value": "< 500", "unit": "nM"}]}, {"smiles": "NCC1(c2cccc(F)c2)C2CCN(c3nc4[nH]nc(-c5ccccc5)c4nc3CO)CC21", "note": "(centres unmarked) [Example 56, (6-(7-(aminomethyl)-7-(3-fluorophenyl)-3-azabicyclo[4.1.0]heptan-3-yl)-3-phenyl-1H-pyrazolo[3,4-b]pyrazin-5-yl)methanol]", "values": [{"measurement": "IC50", "setting": "[1]; KYSE-520, 2 h", "value": "< 1000", "unit": "nM"}, {"measurement": "IC50", "setting": "[2]; [3]", "value": "< 500", "unit": "nM"}]}, {"smiles": "Cc1cc(C2(CN)C3CCN(c4nc5[nH]nc(Sc6ccnc(N)c6Cl)c5nc4CO)CC32)no1", "note": "(centres unmarked) [Example 57, (3-((2-amino-3-chloropyridin-4-yl)thio)-6-(7-(aminomethyl)-7-(5-methylisoxazol-3-yl)-3-azabicyclo[4.1.0]heptan-3-yl)-1H-pyrazolo[3,4-b]pyrazin-5-yl)methanol]", "values": [{"measurement": "IC50", "setting": "[1]; KYSE-520, 2 h", "value": "1000 to 5000", "unit": "nM"}, {"measurement": "IC50", "setting": "[2]; [3]", "value": "< 500", "unit": "nM"}]}, {"smiles": "Cc1cc(C2(CN)C3CCN(c4nc5[nH]nc(-c6ccnc(N)c6Cl)c5nc4CO)CC32)no1", "note": "(centres unmarked) [Example 58, (3-(2-amino-3-chloropyridin-4-yl)-6-(7-(aminomethyl)-7-(5-methylisoxazol-3-yl)-3-azabicyclo[4.1.0]heptan-3-yl)-1H-pyrazolo[3,4-b]pyrazin-5-yl)methanol]", "values": [{"measurement": "IC50", "setting": "[1]; KYSE-520, 2 h", "value": "> 5000", "unit": "nM"}, {"measurement": "IC50", "setting": "[2]; [3]", "value": "< 500", "unit": "nM"}]}, {"smiles": "Cc1cc(C2(CN)C3CCN(c4cnc5c(N6CCCc7ncccc76)n[nH]c5n4)CC32)no1", "note": "(centres unmarked) [Example 60, (3-(3-(3,4-dihydro-1,5-naphthyridin-1(2H)-yl)-1H-pyrazolo[3,4-b]pyrazin-6-yl)-7-(5-methylisoxazol-3-yl)-3-azabicyclo[4.1.0]heptan-7-yl)methanamine]", "values": [{"measurement": "IC50", "setting": "[1]; KYSE-520, 2 h", "value": "< 1000", "unit": "nM"}, {"measurement": "IC50", "setting": "[2]; [3]", "value": "< 500", "unit": "nM"}]}, {"smiles": "Cn1cc2c(Cl)c(-c3n[nH]c4nc(N5CCC6C(C5)C6(CN)c5cc(CO)on5)cnc34)ccc2n1", "note": "(centres unmarked) [Example 61, (3-(7-(aminomethyl)-3-(3-(4-chloro-2-methyl-2H-indazol-5-yl)-1H-pyrazolo[3,4-b]pyrazin-6-yl)-3-azabicyclo[4.1.0]heptan-7-yl)isoxazol-5-yl)methanol]", "values": [{"measurement": "IC50", "setting": "[1]; KYSE-520, 2 h", "value": "< 1000", "unit": "nM"}, {"measurement": "IC50", "setting": "[2]; [3]", "value": "< 500", "unit": "nM"}]}, {"smiles": "Cc1cc(C2(CN)C3CCN(c4nc5[nH]nc(-c6ccc7nn(C)cc7c6Cl)c5c(=O)n4C)CC32)no1", "note": "(centres unmarked) [Example 62, 6-(7-(aminomethyl)-7-(5-methylisoxazol-3-yl)-3-azabicyclo[4.1.0]heptan-3-yl)-3-(4-chloro-2-methyl-2H-indazol-5-yl)-5-methyl-1,5-dihydro-4H-pyrazolo[3,4-d]pyrimidin-4-one]", "values": [{"measurement": "IC50", "setting": "[1]; KYSE-520, 2 h", "value": "1000 to 5000", "unit": "nM"}, {"measurement": "IC50", "setting": "[2]; [3]", "value": "< 500", "unit": "nM"}]}, {"smiles": "NCC1(c2ccccc2)C2CCN(c3nc4nc(Sc5cccnc5C(F)(F)F)cnc4[nH]3)CC21", "note": "(centres unmarked) [Example 63, (7-phenyl-3-(5-((2-(trifluoromethyl)pyridin-3-yl)thio)-1H-imidazo[4,5-b]pyrazin-2-yl)-3-azabicyclo[4.1.0]heptan-7-yl)methanamine]", "values": [{"measurement": "IC50", "setting": "[1]", "value": "1000 to 5000", "unit": "nM"}, {"measurement": "IC50", "setting": "[2]", "value": "< 500", "unit": "nM"}]}, {"smiles": "NCC1(c2ccsc2)C2CCN(c3nc4nc(Sc5cccnc5C(F)(F)F)cnc4[nH]3)CC21", "note": "(centres unmarked) [Example 64, (7-(thiophen-3-yl)-3-(5-((2-(trifluoromethyl)pyridin-3-yl)thio)-1H-imidazo[4,5-b]pyrazin-2-yl)-3-azabicyclo[4.1.0]heptan-7-yl)methanamine]", "values": [{"measurement": "IC50", "setting": "[1]; KYSE-520, 2 h", "value": "1000 to 5000", "unit": "nM"}, {"measurement": "IC50", "setting": "[2]; [3]", "value": "< 500", "unit": "nM"}]}]}
